Test results reported in patent US10793914B2, “Cancer-related biological materials in microvesicles” (THE GENERAL HOSPITAL CORPORATION, priority 2010, dated 2020).

Tested on: medulloblastoma D384 cells
Experiment: exoDNA yield in microvesicles after inhibition of DNA replication with L-mimosine
Type: cell-based, human
Conditions: D384 cells treated with L-mimosine (200, 400 and 600 μM), microvesicles isolated from medium after 48 hrs, ssDNA yield compared to mock treated cells
Method: D384 cells were seeded in 6-well plates and treated with increasing dosages of L-mimosine (200, 400 and 600 μM) or mock treated. Microvesicles were isolated from the medium after 48 hrs and ssDNA was extracted using the Qiagen PCR purification kit. Single-stranded DNA yields were quantified using the Bioanalyzer and the yields were compared to mock treated cells (normalized to 1.0).
We used L-mimosine to inhibit DNA replication and examined whether the inhibition affected the yield of exoDNA. If the exoDNA yield is decreased after inhibition, it is very likely that exoDNA may contain fragments of genomic DNA.
Specifically, D384 cells were plated on 6-well plates (2×10^6 cells/well) and treated with increasing amounts (200, 400 and 600 μM) of L-mimosine (Sigma-Aldrich, St. Louis, Mo.) which is an inhibitor of DNA replication. The drug was added at one time point and 48 hrs after, the media was collected and processed for the isolation of microvesicles. Cell viability was assessed by cell count using the Countess Automated Cell Counter (Invitogen). SsDNA yields are normalized to one.

`N[C@@H](Cn1ccc(=O)c(O)c1)C(=O)O` [L-mimosine] was tested, and the “decrease of exoDNA yield in microvesicles” value was “about 50%”.
